Experiments:
[1] = tested on: rabbit cervix; experiment: Efficacy on ripening of the rabbit cervix, intravaginal gel; type: in vivo; details: initial study, 300 μg/ml topical gel, 0.5 ml intravaginally, eighteen hours after application
Method: Mature pregnant female New Zealand rabbits weighing 4.5 to 6.0 kg were studied. […] Both hormones were applied intravaginally by means of a syringe and a catheter in a volume of 0.5 ml. Control animals received the vehicle alone. After 16-18 hours, the animals were sacrificed using a lethal dose of pentobarbital. […] Paraffin sections were cut and stained with hematoxylin/eosin and alcian blue PAS. Sections were evaluated for general morphology, and specifically for the degree of separation of muscular tissue and collagen fibrils in the submucosa and for the presence of characteristic PAS positive giant cells, which are multinucleate cells of macrophage origin that normally infiltrate the cervix during labor. The measurement of giant cells is accomplished using the procedure described by MacLennan et al., Am J. Obstet. Gynecol., 152: 691-696 (1985).

[2] = tested on: cervix; details: 3000 units in the cervical os, Perezgrovas and Anderson (1982); cited from earlier work
[3] = tested on: cervix; details: 2-mg dose in methylcellulose gel, MacLennan et al. (1981); cited from earlier work
[4] = RP-HPLC stability of topical relaxin (3% methylcellulose gel); type: physicochemical; details: in contrast to shortened B-chain human relaxin
Method: The RP-HPLC method used for analyzing the liquid relaxin formulation, described in Example I, was modified for use with topical relaxin samples. Due to the high viscosity of the gel, samples were diluted ten-fold with water, vortexed for ^~ 5 minutes to homogenize the gel, and left undisturbed to let the bubbles rise. Analysis of these samples was performed by injecting 250 μl onto a C4-300 SynChropak (4.6×250 mm) column at room temperature. The initial equilibration buffer was 18% acetonitrile, 0.1% trifluoroacetic acid. The elution was carried out by running a 1%/min. increasing linear acetonitrile gradient to a final concentration of 45% acetonitrile after 30 minutes. The flow rate was held constant at 1.0 ml/min. and the absorbance was monitored at 214 nm. The "slowdown" step (the time it takes to draw the viscous gel into the metering device) was increased from […].
Three significant stability experiments were performed on the topical relaxin formulation. The first was to measure the stability of these preparations after being left out at room temperature for five weeks. The sample remained in the original syringe, subject to the fluctuations of temperature and light.
The second study was a measure of the stability of topical relaxin under well controlled conditions at 5° C. and 25° C. […]

Question: Which “cervical ripening, morphology of the pregnant cervix” value [1] does the source give for porcine relaxin here?
Answer: significant dilation and cervical ripening were observed

Question: And the “time to increased dilatation of the cervix after infusion” value [2]?
Answer: ≤ 8 h

Question: What about the “effect on cervical score” value [3] of the same substance?
Answer: improve the cervical score

Question: What about the “degradation of 600 μg/ml porcine relaxin in 3% Methocel gel by HPLC” value [4] of the same substance?
Answer: degraded very little

— patent US5945402A (Genetech, Inc., priority 1995, dated 1999)
